Several values for one entry are separate records, joined by “and”; a condition that tells them apart may be missing. Identical values can stand only once. Like-named read-outs stand apart in the source and are kept apart here.
Columns and labels:
[1] = Lipophilicity coefficient RM0 by reversed phase thin layer chromatography; format: physicochemical; conditions: RP-18 TLC, methanol / 100 mM phosphate buffer pH = 7.4
Description: Confirmation of the identity and purity of the obtained compounds consisted in the registration and interpretation of ^1H NMR and ^13C NMR spectra (the spectra were recorded using an ECZR 500 MHz (JEOL) series FT-NMR spectrophotometer), as well as the registration and interpretation of LC-MS spectra (the spectra were recorded using Acquita UPLC system (Waters) coupled with a Waters TQD mass spectrometer). The melting point was measured using the open capillary method in the IA9300 device (Electrothermal). The lipophilicity coefficient RM0 was determined by reversed phase thin layer chromatography. In the study, aluminum plates 20x20 cm covered with modified silica gel RP-18 F254 (Merck) were used as the solid phase. The mobile phase consisted of solutions of methanol and 100 mM phosphate buffer (pH = 7.4), characterized by a variable methanol content ranging from 95 to 65% (v/v). The tested compounds were dissolved in methanol to obtain solutions with a concentration of 1 mg/mL. Then, 5 µL of the solutions prepared in this way were transferred to the starting line on aluminum plates, which were then placed in chromatographic chambers previously saturated with mobile phase vapors for at least 1 hour. All activities, including the development of chromatograms, were carried out at room temperature. After developing the chromatograms to approximately 1-2 cm from the end of the plate, the plates were dried and then the distance traveled by the tested compounds was visualized under UV light (λ = 254 nm). The experiment was performed in duplicate for the specified conditions. For all samples, Rf was calculated according to the formula Rf = a/b, where a - the distance traveled by the tested compound, b - the distance traveled by the mobile phase. Then, the RM parameter was calculated for all samples according to the formula RM = log(1/Rf - 1), obtaining a linear relationship between the RM values and the methanol concentration in the mobile phase. The logP coefficient was also calculated using the following computer programs: ACD/ChemSketch 2020.1.2 and ChemDraw 20.0.0.41. Table 2. The physicochemical data of the compounds are presented below

tyrosinase from mushroom = assay: Inhibition of commercial mushroom tyrosinase (L-DOPA or L-tyrosine substrate); format: biochemical
Description: The following substrates were used for the enzymatic reaction: L-tyrosine and L-3,4-dihyroxyphenylalanine (L-DOPA). Both substrates were used in independent experiments. According to the literature, the use of L-DOPA enables the assessment of tyrosinase diphenolase activity, and L-tyrosine - the tyrosinase monophenolase activity. The determinations were performed in 96-well plates, in each well there was placed: 170 µL or 127.5 µL of 50 mM phosphate buffer (pH = 6.8) with tyrosinase (1U/well or 3U/well) and 10 µL of a solution of the tested compound in DMSO (the final concentration in the well was 500 µM, 250 µM or 125 µM). The negative control used 10 µL of pure solvent (DMSO). To initiate the reaction, an appropriate substrate was added: L-tyrosine (62.5 µL of solution in phosphate buffer) or L-DOPA (20 µL of solution in phosphate buffer). After a 25-minute incubation, the absorbance was measured at 475 nm using a microplate reader. The percentage of inhibition of tyrosinase activity was calculated using the formula: [(AC -AT)/AC] × 100, where AC - is the absorbance of the negative control, AT - is the absorbance of the sample containing the tested compound.

[2] = tested on: B16-F10 murine melanoma cell line; assay: Cytotoxicity in B16-F10 cells (MTT); format: cell-based; conditions: 48 h
Description: In order to determine safe doses of compounds for testing the inhibition of melanogenesis in a murine melanoma cell line, cytotoxicity tests were performed. Cytotoxicity was determined by the colorimetric method using MTT ([3-(4,5-dimethyl-2-thiazolyl)-2,5-diphenyl-2H-tetrazolium bromide, Sigma M5655). For this purpose, cells were transferred to 96-well plates in an amount of 5000/well. After 24 h of culture in an incubator in F 10-Ham medium with 1% FBS, the tested compounds at various concentrations were added to the wells together with fresh medium. DMSO was added to the medium in a negative control. The MTT test was performed after further culture for 48 h. Then the medium was removed and the formed formazan crystals were dissolved in DMSO. The absorbance was measured at 570 nm in a plate reader and the result was compared to the control (DMSO), which was 100%. The percentage of viability was calculated using the formula: [AT/AC^∗100], where AT is the absorbance of the test sample, AC - absorbance of the control sample. Table 3. Results of inhibiting the activity of monophenolase […] tyrosinase and cytotoxicity testing in B16F10 cells for the described compounds.

S. typhimurium TA100 = assay: Ames microplate test, TA100; format: cell-based, Salmonella typhimurium; conditions: positive control (PC), 125 µg/mL, +S9;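 note: reference level is the mean solvent-control yellow wells plus SD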
Description: (§1) Bacteria were grown overnight in growth medium.
(§2) Table 9. Ames microplate test results.

S. typhimurium TA98 = assay: Ames microplate test, TA98; format: cell-based, Salmonella typhimurium; conditions: positive control (PC), 0.5 µg/mL, +S9;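 note: reference level is the mean solvent-control yellow wells plus SD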
Description: as §1, §2

[3] = L-DOPA, read-out: Tyrosinase inhibition with L-DOPA, IC50
[4] = L-tyrosine, read-out: Tyrosinase inhibition with L-tyrosine, IC50

| RM0 [1] | Tyrosinase inhibition with L-DOPA [%] (tyrosinase from mushroom; L-DOPA) | Tyrosinase inhibition with L-tyrosine [%] (tyrosinase from mushroom; L-tyrosine) | IC50 (tyrosinase from mushroom; [3]) [µM] | IC50 (tyrosinase from mushroom; [4]) [µM] | Tyrosinase inhibition with L-DOPA [%] (tyrosinase from mushroom; L-DOPA, 125 µM) | Tyrosinase inhibition with L-tyrosine [%] (tyrosinase from mushroom; L-tyrosine, 125 µM) | Compound | Cytotoxicity study in B16F10 cells % viability ([2]; 150 µM) [%] | Cytotoxicity study in B16F10 cells % viability ([2]; 200 µM) [%] | Cytotoxicity study in B16F10 cells % viability ([2]; 250 µM) [%] | Increase in the number of yellow wells compared to the reference level (S. typhimurium TA100) | Increase in the number of yellow wells compared to the reference level (S. typhimurium TA98) |
| --- | --- | --- | --- | --- | --- | --- | --- | --- | --- | --- | --- | --- |
| 2.76 | 41.17±0.81% (500 µM) | 57.62±2.11% (500 µM) | 906 | 405 | – | – | CC(C)C(CO)NC(=O)/C=C/c1ccc(Cl)cc1 (stereo not drawn) [Compound A-106, (2E)-3-(4-chlorophenyl)-N-(1-hydroxy-3-methylbutan-2-yl)prop-2-enamide] | 85.9 | 88.1 | 72.6 | – | – |
| 2.17 | 22.96±6.64% (500 µM) | 4.40±7.15% (500 µM) | – | – | – | – | Cc1ccc(/C=C/C(=O)NC(C)CO)cc1 (stereo not drawn) [Compound A-69, (2E)-N-(1-hydroxypropan-2-yl)-3-(4-methylphenyl)prop-2-enamide] | 96.6 | 101.3 | 97.5 | – | – |
| 1.60 | 34.23±2.32% (500 µM) | 27.41±2.24% (500 µM) | – | – | – | – | O=C(/C=C/c1ccccc1)NCCCO [KM-634, (2E)-N-(3-hydroxypropyl)-3-phenylprop-2-enamide] | 76.1 | 70.5 | 63.3 | – | – |
| 2.43 | 43.99±2.60% (500 µM) | 61.80±0.40% (500 µM) | 734 | 284 | – | – | CCC(CO)NC(=O)/C=C/c1ccc(Cl)cc1 (stereo not drawn) [Compound A-01, (2E)-3-(4-chlorophenyl)-N-(1-hydroxybutan-2-yl)prop-2-enamide] | 73.6 | 93.2 | 85.4 | – | – |
| 2.39 | 21.19±1.26% (500 µM) | 30.22±10.22% (500 µM) | – | – | – | – | CCC(O)CNC(=O)/C=C/c1ccc(C)cc1 (stereo not drawn) [Compound A-63, (2E)-N-(2-hydroxybutyl)-3-(4-methylphenyl)prop-2-enamide] | 90.2 | 87.3 | 87.4 | – | – |

Continued, compound first:

| Compound | RM0 [1] | Tyrosinase inhibition with L-DOPA [%] (tyrosinase from mushroom; L-DOPA) | Tyrosinase inhibition with L-tyrosine [%] (tyrosinase from mushroom; L-tyrosine) | IC50 (tyrosinase from mushroom; [3]) [µM] | IC50 (tyrosinase from mushroom; [4]) [µM] | Tyrosinase inhibition with L-DOPA [%] (tyrosinase from mushroom; L-DOPA, 125 µM) | Tyrosinase inhibition with L-tyrosine [%] (tyrosinase from mushroom; L-tyrosine, 125 µM) | Cytotoxicity study in B16F10 cells % viability ([2]; 150 µM) [%] | Cytotoxicity study in B16F10 cells % viability ([2]; 200 µM) [%] | Cytotoxicity study in B16F10 cells % viability ([2]; 250 µM) [%] | Increase in the number of yellow wells compared to the reference level (S. typhimurium TA100) | Increase in the number of yellow wells compared to the reference level (S. typhimurium TA98) |
| --- | --- | --- | --- | --- | --- | --- | --- | --- | --- | --- | --- | --- |
| O=C(/C=C/c1ccc(Cl)cc1Cl)N1CCC(O)CC1 [H-310/20, (2E)-3-(2,4-dichlorophenyl)-1-(4-hydroxypiperidin-1-yl)prop-2-en-1-one] | 2.80 | 7.23±0.81% (500 µM) | 19.24±3.44% (500 µM) | – | – | – | – | 89.5 | 100.4 | 93.0 | – | – |
| O=C(/C=C/c1ccc(Cl)cc1Cl)NCCCO [H-296/20, (2E)-3-(2,4-dichlorophenyl)-N-(3-hydroxypropyl)prop-2-enamide] | 2.11 | 18.63±1.67% (500 µM) | 17.87±7.36% (500 µM) | – | – | – | – | 67.0 | 57.0 | 38.3 | – | – |
| Cc1ccc(/C=C/C(=O)NCCCCO)cc1 [H-411/21, (2E)-N-(4-hydroxybutyl)-3-(4-methylphenyl)prop-2-enamide] | 2.27 | 16.89±7.94% (500 µM) | 20.43±2.09% (500 µM) | – | – | – | – | 50.6 | 34.9 | 41.2 | – | – |
| Cc1ccc(/C=C/C(=O)NCCCO)cc1 [H-410/21, (2E)-N-(3-hydroxypropyl)-3-(4-methylphenyl)prop-2-enamide] | 2.04 | 16.99±5.66% (500 µM) | 0.51±5.40% (500 µM) | – | – | – | – | 88.8 | 90.7 | 79.8 | – | – |
| CCC(O)CNC(=O)/C=C/c1ccc(Cl)cc1Cl (stereo not drawn) [H-320/21, (2E)-3-(2,4-dichlorophenyl)-N-(2-hydroxybutyl)prop-2-enamide] | 3.08 | 5.8±3.04% (500 µM) | 24.43±8.05% (500 µM) | – | – | – | – | 101.7 | 90.8 | 33.9 | – | – |
| O=C(/C=C/c1ccc(Cl)cc1)NCCCCCCO [H-426/21, (2E)-3-(4-chlorophenyl)-N-(6-hydroxyhexyl)prop-2-enamide] | 3.02 | – | – | – | – | 30.66±1.82% (125 µM) | 39.89±3.21% (125 µM) | 30.3 | 28.2 | 28.3 | – | – |
| CCC(CO)NC(=O)/C=C/c1ccc(C)cc1 (stereo not drawn) [H-409/21, (2E)-N-(1-hydroxybutan-2-yl)-3-(4-methylphenyl)prop-2-enamide] | 2.49 | 21.81±2.31% (500 µM) | 15.31±8.27% (500 µM) | – | – | – | – | 83.2 | 95.3 | 103.4 | – | – |
| Nc1ccc2cc3ccccc3cc2c1 [Compound 2-AA, 2-aminoanthracene, reference compound] | – | – | – | – | – | – | – | – | – | – | 4.00 | 24.00 and 15.03 |

Source: patent EP4324461A1, “(E)-N-CINAMOYLAMINOALKANOLES WITH MELANOGENESIS INHIBITORY ACTIVITY” (UNIWERSYTET JAGIELLONSKI, priority 2022, dated 2024)
